Like-named read-outs stand apart in the source and are kept apart here.
Key:
Format in all cases: cell-based
[1] = tested on: IL-2 secretion from T cells in human whole blood; settings: read-out: WB (IL-2) IC50 (nM, Avg)
[2] = biological target: hKv1.3 (Homo sapiens, UniProt P22001); test: cell-based; settings: Kv1.3 (IWQ) IC50 (nM, Avg)
[3] = tested on: IFN-g secretion from T cells in human whole blood
[4] = read-out: WB (IFNg) IC50 (nM, Avg)

Sequence of hKv1.3 (P22001 whole entry): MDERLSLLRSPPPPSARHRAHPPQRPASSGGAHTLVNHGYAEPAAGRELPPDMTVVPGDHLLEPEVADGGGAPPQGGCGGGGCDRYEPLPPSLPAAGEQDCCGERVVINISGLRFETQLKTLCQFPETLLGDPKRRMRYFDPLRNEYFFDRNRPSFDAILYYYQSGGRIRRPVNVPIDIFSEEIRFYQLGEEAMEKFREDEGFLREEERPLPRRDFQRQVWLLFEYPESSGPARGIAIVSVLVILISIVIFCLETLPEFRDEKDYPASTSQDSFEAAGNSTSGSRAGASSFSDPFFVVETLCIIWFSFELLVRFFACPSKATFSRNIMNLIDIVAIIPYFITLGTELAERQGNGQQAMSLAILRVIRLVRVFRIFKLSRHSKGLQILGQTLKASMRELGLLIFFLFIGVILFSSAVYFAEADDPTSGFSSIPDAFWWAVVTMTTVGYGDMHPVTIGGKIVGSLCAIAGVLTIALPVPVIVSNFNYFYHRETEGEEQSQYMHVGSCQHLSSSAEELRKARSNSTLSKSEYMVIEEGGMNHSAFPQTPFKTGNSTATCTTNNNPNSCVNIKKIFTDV

SMILES	IC50 [1]	IC50 [2]	IC50 ([3]; read-out: WB (IFNg) IC5- (nM, Avg))	IC50 [3, 4]
CC[C@H](C)[C@@H]1NC(=O)[C@@H](NC(=O)[C@H](CO)NC(=O)[C@@H](N)CCCNC(=N)N)CSSC[C@@H](C(=O)O)NC(=O)[C@H]([C@@H](C)O)NC(=O)CNC(=O)[C@@H]2CSSC[C@@H]3NC(=O)[C@H](CCC(N)=O)NC(=O)[C@H](Cc4ccccc4)NC(=O)[C@H](C)NC(=O)[C@H]([C@@H](C)O)NC(=O)[C@H](CSSC[C@H](NC(=O)[C@H](Cc4ccccc4)NC(=O)[C@H](CO)NC(=O)[C@H](CC(C)C)NC(=O)[C@H](CCCNC(=N)N)NC(=O)[C@H](Cc4ccc(O)cc4)NC(=O)[C@H](CCCCN)NC(=O)[C@H](CCSC)NC(=O)[C@H](CO)NC(=O)[C@H](Cc4c[nH]cn4)NC(=O)[C@H](CCCCN)NC3=O)C(=O)N[C@@H](CCCNC(=N)N)C(=O)N[C@@H](CCCCN)C(=O)N[C@@H]([C@@H](C)O)C(=O)N2)NC(=O)[C@H](CCC(=O)O)NC(=O)[C@H](CO)NC(=O)[C@H](CCCCN)NC(=O)[C@@H]2CCCN2C(=O)[C@H]([C@@H](C)CC)NC(=O)[C@H]([C@@H](C)O)NC(=O)[C@H](CC(=O)O)NC1=O [[Glu11]ShK]	1.32 nM	0.969 nM	4.54 nM	–
CC[C@H](C)[C@@H]1NC(=O)[C@H]([C@@H](C)O)NC(=O)[C@H](CC(=O)O)NC(=O)[C@H](CCC(=O)O)NC(=O)[C@@H](NC(=O)[C@H](CO)NC(=O)[C@@H](N)CCCNC(=N)N)CSSC[C@@H](C(=O)N[C@@H](C)C(=O)O)NC(=O)[C@H]([C@@H](C)O)NC(=O)CNC(=O)[C@@H]2CSSC[C@@H]3NC(=O)[C@H](CCCCN)NC(=O)[C@H](Cc4ccccc4)NC(=O)[C@H](C)NC(=O)[C@H]([C@@H](C)O)NC(=O)[C@H](CSSC[C@H](NC(=O)[C@H](Cc4ccccc4)NC(=O)[C@H](CO)NC(=O)[C@H](CC(C)C)NC(=O)[C@H](CCCNC(=N)N)NC(=O)[C@H](Cc4ccc(O)cc4)NC(=O)[C@H](CCCCN)NC(=O)[C@H](CCC(N)=O)NC(=O)[C@H](CO)NC(=O)[C@H](Cc4c[nH]cn4)NC(=O)[C@H](CCCCN)NC3=O)C(=O)N[C@@H](CCCNC(=N)N)C(=O)N[C@@H](CCCCN)C(=O)N[C@@H]([C@@H](C)O)C(=O)N2)NC(=O)[C@H](CCCNC(=N)N)NC(=O)[C@H](CO)NC(=O)[C@H](CCCCN)NC(=O)[C@@H]2CCCN2C1=O [[Glu4,Lys16,Gln21]ShK-Ala]	0.137 nM	26.4 nM	–	0.265 nM
CC[C@H](C)[C@@H]1NC(=O)[C@@H](NC(=O)[C@H](CO)NC(=O)[C@@H](N)CCCNC(=N)N)CSSC[C@@H](C(=O)O)NC(=O)[C@H]([C@@H](C)O)NC(=O)CNC(=O)[C@@H]2CSSC[C@@H]3NC(=O)[C@H](CCC(N)=O)NC(=O)[C@H](Cc4ccccc4)NC(=O)[C@H](C)NC(=O)[C@H]([C@@H](C)O)NC(=O)[C@H](CSSC[C@H](NC(=O)[C@H](Cc4ccccc4)NC(=O)[C@H](CO)NC(=O)[C@H](CC(C)C)NC(=O)[C@H](CCCNC(=N)N)NC(=O)[C@H](Cc4ccc(O)cc4)NC(=O)[C@H](CCCCN)NC(=O)[C@H](CCSC)NC(=O)[C@H](CO)NC(=O)[C@H](Cc4c[nH]cn4)NC(=O)[C@H](CCCCN)NC3=O)C(=O)N[C@@H](CCCNC(=N)N)C(=O)N[C@@H](CCCCN)C(=O)N[C@@H]([C@@H](C)O)C(=O)N2)NC(=O)[C@H](CCCNC(=N)N)NC(=O)[C@H](CCCCN)NC(=O)[C@H](CCCCN)NC(=O)[C@@H]2CCCN2C(=O)[C@H]([C@@H](C)CC)NC(=O)[C@H]([C@@H](C)O)NC(=O)[C@H](CC(=O)O)NC1=O [[Lys10]ShK]	0.052 nM	0.174 nM	–	0.082 nM
CC[C@H](C)[C@@H]1NC(=O)[C@@H](NC(=O)[C@H](CO)NC(=O)[C@@H](N)CCCNC(=N)N)CSSC[C@@H](C(=O)O)NC(=O)[C@H]([C@@H](C)O)NC(=O)CNC(=O)[C@@H]2CSSC[C@@H]3NC(=O)[C@H](CCC(N)=O)NC(=O)[C@H](Cc4ccccc4)NC(=O)[C@H](C)NC(=O)[C@H]([C@@H](C)O)NC(=O)[C@H](CSSC[C@H](NC(=O)[C@H](Cc4ccccc4)NC(=O)[C@H](CO)NC(=O)[C@H](CC(C)C)NC(=O)[C@H](CCCNC(=N)N)NC(=O)[C@H](Cc4ccc(O)cc4)NC(=O)[C@H](CCCCN)NC(=O)[C@H](CCSC)NC(=O)[C@H](CO)NC(=O)[C@H](Cc4cccc5ccccc45)NC(=O)[C@H](CCCCN)NC3=O)C(=O)N[C@@H](CCCNC(=N)N)C(=O)N[C@@H](CCCCN)C(=O)N[C@@H]([C@@H](C)O)C(=O)N2)NC(=O)[C@H](CCCNC(=N)N)NC(=O)[C@H](CO)NC(=O)[C@H](CCCCN)NC(=O)[C@@H]2CCCN2C(=O)[C@H]([C@@H](C)CC)NC(=O)[C@H]([C@@H](C)O)NC(=O)[C@H](CC(=O)O)NC1=O [[1-Nal19]ShK]	0.153 nM	0.277 nM	–	0.255 nM
CC[C@H](C)[C@@H]1NC(=O)[C@@H](NC(=O)[C@H](CO)NC(=O)[C@@H](N)CCCNC(=N)N)CSSC[C@@H](C(=O)O)NC(=O)[C@H]([C@@H](C)O)NC(=O)CNC(=O)[C@@H]2CSSC[C@@H]3NC(=O)[C@H](CCN)NC(=O)[C@H](Cc4ccccc4)NC(=O)[C@H](C)NC(=O)[C@H]([C@@H](C)O)NC(=O)[C@H](CSSC[C@H](NC(=O)[C@H](Cc4ccccc4)NC(=O)[C@H](CO)NC(=O)[C@H](CC(C)C)NC(=O)[C@H](CCCNC(=N)N)NC(=O)[C@H](Cc4ccc(O)cc4)NC(=O)[C@H](CCCCN)NC(=O)[C@H](CCSC)NC(=O)[C@H](CO)NC(=O)[C@H](Cc4c[nH]cn4)NC(=O)[C@H](CCCCN)NC3=O)C(=O)N[C@@H](CCCNC(=N)N)C(=O)N[C@@H](CCCCN)C(=O)N[C@@H]([C@@H](C)O)C(=O)N2)NC(=O)[C@H](CCCNC(=N)N)NC(=O)[C@H](CO)NC(=O)[C@H](CCCCN)NC(=O)[C@@H]2CCCN2C(=O)[C@H]([C@@H](C)CC)NC(=O)[C@H]([C@@H](C)O)NC(=O)[C@H](CC(=O)O)NC1=O [[Dab16]ShK]	0.086 nM	0.082 nM	–	0.223 nM
CCCC[C@@H]1NC(=O)[C@H](CO)NC(=O)[C@H](Cc2c[nH]cn2)NC(=O)[C@H](CCCCN)NC(=O)[C@@H]2CSSC[C@@H]3NC(=O)[C@H]([C@@H](C)O)NC(=O)[C@H](CCCCN)NC(=O)[C@H](CCCNC(=N)N)NC(=O)[C@H](CSSC[C@H](NC(=O)[C@H](CCCNC(=N)N)NC(=O)[C@H](CO)NC(=O)[C@H](CCCCN)NC(=O)[C@@H]4CCCN4C(=O)[C@H]([C@@H](C)CC)NC(=O)[C@H]([C@@H](C)O)NC(=O)[C@H](CC(=O)O)NC(=O)[C@H](CCC(=O)O)NC(=O)[C@@H](NC(=O)[C@H](CO)NC(=O)[C@@H](N)CCCNC(=N)N)CSSC[C@@H](C(N)=O)NC(=O)[C@H]([C@@H](C)O)NC(=O)CNC3=O)C(=O)N[C@@H]([C@@H](C)O)C(=O)N[C@@H](C)C(=O)N[C@@H](C)C(=O)N[C@@H](CCCCN)C(=O)N2)NC(=O)[C@H](Cc2ccccc2)NC(=O)[C@H](CO)NC(=O)[C@H](CC(C)C)NC(=O)[C@H](CCCNC(=N)N)NC(=O)[C@H](Cc2ccc(O)cc2)NC(=O)[C@H](CCCCN)NC1=O [[Glu4,A1a15,Lys16,Nle21]ShK-amide]	0.856 nM	0.168 nM	–	0.901 nM
CCCC[C@@H]1NC(=O)[C@H](CO)NC(=O)[C@H](Cc2c[nH]cn2)NC(=O)[C@H](CCC(=O)O)NC(=O)[C@@H]2CSSC[C@@H]3NC(=O)[C@H]([C@@H](C)O)NC(=O)[C@H](CCCNC(=N)N)NC(=O)[C@H](CCCNC(=N)N)NC(=O)[C@H](CSSC[C@H](NC(=O)[C@H](CCCNC(=N)N)NC(=O)[C@H](CO)NC(=O)[C@H](CCCCN)NC(=O)[C@@H]4CCCN4C(=O)[C@H]([C@@H](C)CC)NC(=O)[C@H]([C@@H](C)O)NC(=O)[C@H](CC(=O)O)NC(=O)[C@H]([C@@H](C)CC)NC(=O)[C@@H](NC(=O)[C@H](CO)NC(=O)[C@@H](N)CCCNC(=N)N)CSSC[C@@H](C(N)=O)NC(=O)[C@H]([C@@H](C)O)NC(=O)CNC3=O)C(=O)N[C@@H]([C@@H](C)O)C(=O)N[C@@H](C)C(=O)N[C@@H](C)C(=O)N[C@@H](CCCCN)C(=O)N2)NC(=O)[C@H](Cc2ccccc2)NC(=O)[C@H](CO)NC(=O)[C@H](CC(C)C)NC(=O)[C@H](CCCNC(=N)N)NC(=O)[C@H](Cc2ccc(O)cc2)NC(=O)[C@H](CCCCN)NC1=O	1.32 nM	0.398 nM	–	2.03 nM
CC[C@H](C)[C@@H]1NC(=O)[C@@H](NC(=O)[C@H](CO)NC(=O)[C@@H](N)CCCNC(=N)N)CSSC[C@@H](C(=O)O)NC(=O)[C@H](C)NC(=O)CNC(=O)[C@@H]2CSSC[C@@H]3NC(=O)[C@H](CCC(N)=O)NC(=O)[C@H](Cc4ccccc4)NC(=O)[C@H](C)NC(=O)[C@H]([C@@H](C)O)NC(=O)[C@H](CSSC[C@H](NC(=O)[C@H](Cc4ccccc4)NC(=O)[C@H](CO)NC(=O)[C@H](CC(C)C)NC(=O)[C@H](CCCNC(=N)N)NC(=O)[C@H](Cc4ccc(O)cc4)NC(=O)[C@H](CCCCN)NC(=O)[C@H](CCSC)NC(=O)[C@H](CO)NC(=O)[C@H](Cc4c[nH]cn4)NC(=O)[C@H](CCCCN)NC3=O)C(=O)N[C@@H](CCCNC(=N)N)C(=O)N[C@@H](CCCCN)C(=O)N[C@@H]([C@@H](C)O)C(=O)N2)NC(=O)[C@H](CCCNC(=N)N)NC(=O)[C@H](CO)NC(=O)[C@H](CCCCN)NC(=O)[C@@H]2CCCN2C(=O)[C@H]([C@@H](C)CC)NC(=O)[C@H]([C@@H](C)O)NC(=O)[C@H](CC(=O)O)NC1=O [[Ala34]ShK]	0.063 nM	0.123 nM	–	0.075 nM
